Data from US10857122B2, “Hypoestoxide, derivatives, related compounds, and agonists thereof for treatment or prevention of neurodegenerative diseases” (Immune Modulation, Inc., priority 2015, dated 2020).

Columns and labels:
NF-κB [1] = assay: Immunofluorescence analysis of NF-κB and phosphorylated-NF-κB in neocortex; type: in vivo, mice; settings: 5 mg/kg IP daily for four weeks
Description: (§1) Five-month-old non-tg and α-syn-tg female mice were injected intra-peritoneally (IP) with either vehicle (40% captisol) or 5 mg/kg of hypoestoxide daily for four weeks. The right hemibrains were post-fixed in phosphate-buffered 4% PFA at 4° C. for neuropathological analysis, while the left hemibrains were snap-frozen and stored at −70° C. for subsequent protein and mRNA analysis.
(§2) Blind-coded sagittal brain sections were incubated with primary antibodies at 4° C. for overnight. The next day, sections were incubated with either biotinylated- or FITC-conjugated secondary antibodies and detected with avid in D-HRP HRP (ABC elite, Vector Laboratories, Burlingame, Calif.) and with Tyramide Signal Amplification Direct system (PerkinElmer, Waltham, Mass.), respectively.
(§3) To determine the neuroinflammation, neurodegeneration, accumulation of α-synuclein, and NF-κB activation, brain sections were stained with Iba-1, GFAP, TNFα, IL-1β, IL6, human α-synuclein, NF-κB, and phosphorylated-NF-κB antibodies, respectively. Sections were imaged by Olympus BX41 microscope. All immunoreactivity levels were determined by optical density analysis using Image Quant 1.43 program (NIH) except the immunoreactivity of Iba-1. The cell numbers of Iba-1-positive cells were determined per field (230 μm×184 μm) of each animal based on cell body recognition using Image Quant 1.43 program (NIH). […]

α-synuclein [2] = assay: Immunoblot analysis of α-synuclein in SDS-soluble and SDS-insoluble brain homogenate fractions; type: in vivo; settings: brain homogenates of α-syn-tg mice; 5 mg/kg IP daily for four weeks
Description: as §1
(§4) Brain homogenates were prepared in the lysis buffer to separate SDS-soluble and SDS-insoluble fractions. Chemiluminescence detection and analysis were performed using Versadoc XL imaging apparatus and Quantity One (Bio-rad, Hercules, Calif.).
FIGS. 3F-3G show the results of a biochemical analysis. Brain homogenates were separated into SDS-soluble and SDS-insoluble factions, and analyzed by immunoblot analysis. The levels of α-synuclein in SDS-soluble fractions from α-syn tg mice were not affected by HE administration. […] A positive interactive effect of HE treatment on the level of SDS-insoluble α-synuclein (Finteraction (1, 16)=8.68, p=0.0095) was confirmed by two-way ANOVA.

α-synuclein [3] = assay: Immunohistochemical and immunofluorescence analysis of α-synuclein accumulation in brain sections; type: in vivo, mice; settings: 5 mg/kg IP daily for four weeks
Description: as §1, §2
(§5) To determine the neuroinflammation, neurodegeneration, accumulation of α-synuclein, and NF-κB activation, brain sections were stained with Iba-1, GFAP, TNFα, IL-1β, IL6, human α-synuclein, NF-κB, and phosphorylated-NF-κB antibodies, respectively. Sections were imaged by Olympus BX41 microscope. All immunoreactivity levels were determined by optical density analysis using Image Quant 1.43 program (NIH) except the immunoreactivity of Iba-1. The cell numbers of Iba-1-positive cells were determined per field (230 μm×184 μm) of each animal based on cell body recognition using Image Quant 1.43 program (NIH).
To determine whether the behavioral improvements observed in the α-syn-tg mice were related to alterations of α-synuclein pathology, immunohistochemical analysis was performed for α-synuclein with brain sections from non-tg and α-syn-tg mice treated with either vehicle or HE. […]
Immunofluorescence analysis of human α-synuclein in the frontal cortex of non-tg and α-syn-tg mice treated with either vehicle or hypoestoxide was performed. […] Additionally, fluorescence intensity against human α-synuclein was analyzed in frontal cortex of the brains. Immunoreactivity against human α-synuclein was not detected in the frontal cortex of non-tg mice, but it was highly detected in the frontal cortex of α-syn-tg mice. […]

α-syn-tg mice [4] = assay: Quantitative gene expression analysis (qPCR) of pro-inflammatory cytokines; type: in vivo; settings: neocortex of α-syn-tg mice; 5 mg/kg IP daily for four weeks
Description: as §1
(§6) Total mRNA was extracted from mice frontal cortex using RNeasy Lipid mini kit (Qiagen, Germantown, Md.) and reverse transcribed using SuperScript VILO cDNA synthesis kit (Life Technologies), respectively. Quantitative real-time PCR was performed using TaqMan® Fast Advanced Master Mix (Life Technologies) according to manufacturer's instructions with gene specific primers obtained from Life Technologies, such as TNFα (Mm00443258_m1), IL6 (Mm00446190_m1), IL-1β (Mm00434228_m1), and β-actin (Mm00607939_s1). Amplification of DNA products was measured by the StepOnePlus real-time PCR system (Applied Biosystems, Carlsbad, Calif.). Relative mRNA levels were calculated according to the 2-exp (ΔΔCt) method. All ΔCT values were normalized to β-actin.
(§7) The levels of pro-inflammatory cytokines were analyzed using immunohistochemical analysis and gene expression analysis. The levels of TNFα, IL-1ß and IL6 were increased in α-syn-tg mice compared to non-tg mice. […] A positive interactive effect of HE treatment on the levels of TNFα (Finteraction (1, 16)=12.34, p=0.0029), IL-1β (Finteraction (1, 16)=11.58, p=0.0036), and IL6 (Finteraction (1, 16)=31.06, p<0.0001) was confirmed by two-way ANOVA. […] A positive interactive effect of HE treatment on the mRNA levels of TNFα (Finteraction (1, 16)=15.78, p=0.0019), IL-1β (Finteraction (1, 16)=11.65, p=0.0051), and IL6 (Finteraction (1, 16)=6.40, p=0.0264) was confirmed by two-way ANOVA.

α-syn-tg mice [5] = assay: Immunohistochemical analysis of brain immune cells (Iba-1 microglia, GFAP astrocytes) in a mouse model of PD; type: in vivo; settings: 5 mg/kg IP daily for four weeks
Description: as §1, §2, §5
FIGS. 1A-1F show analysis of the numbers of brain immune cells.
A positive interactive effect of HE treatment on Iba-1 optical density (Finteraction (1, 16)=80.48, p<0.0001), numbers of microglia branches (Finteraction (1, 16)=83.25, p<0.0001), GFAP optical density (Finteraction (1, 16)=15.88, p=0.0011), and numbers of astroglial branches (Finteraction (1, 16)=4.04, p=0.0616) was confirmed by two-way ANOVA.

α-synuclein mRNA = α-synuclein mRNA levels; type: in vivo, mice; settings: model of PD
Description: as §1, §6
Intraneuronal accumulations of α-synuclein aggregates are typical pathological features of PD. […]

α-syn-tg mice [6] = assay: Open field and round beam behavioral tests; type: in vivo; settings: 5 mg/kg IP daily for four weeks
Description: as §1
Following treatment, the mice were assessed for gait and coordination using the open field and the round beam tests. Total activity was calculated as total beam breaks in ten minutes. The impairment of gait and balance were assessed by round beam analysis. Three consecutive trials of one minute each were run in one day. The numbers of foot slippages and distance traveled were recorded. The total errors on the beam were calculated as foot slips/distance traveled.
A positive interactive effect of HE treatment on the beam break numbers (Finteraction (1, 16)=15.61, p=0.0011) and total round beam errors (Finteraction (1, 16)=8.58, p=0.0098) was confirmed by two-way ANOVA.

α-syn-tg mice [7] = assay: Neurodegeneration analysis (TH-positive striatal fibers); type: in vivo; settings: 5 mg/kg IP daily for four weeks
Description: as §1, §2, §3

α-syn-tg mice [8] = assay: Immunohistochemical analysis of pro-inflammatory cytokines in a mouse model of PD; type: in vivo; settings: neocortex of α-syn-tg mice; 5 mg/kg IP daily for four weeks
Description: as §1, §2, §5, §7

NF-κB [9] = assay: Western blot analysis of NF-κB in cytosolic and nuclear fractions of cortex homogenates; type: in vivo, mice; settings: 5 mg/kg IP daily for four weeks
Description: as §1, §4
Biochemical analysis using brain homogenates from the cortex of non-tg and α-syn-tg mice was performed. Brain homogenates were separated into cytosolic and nuclear fractions by centrifugation, and each fraction was analyzed by western blot analysis. Total levels of NF-κB were not altered by HE administration in non-tg and α-syn-tg mice. […] A positive interactive effect of HE treatment on the level of phosphorylated-NF-κB (Finteraction (1, 16)=11.55, p=0.0037) was confirmed by two-way ANOVA.

[10] = frontal cortex of α-syn-tg mice

C=C1C(=O)C[C@H]2C[C@@H]3O[C@@]3(C)CC[C@@H]3O[C@@]3(C)C[C@@H](OC(C)=O)[C@H]1C2(C)C [HE, hypoestoxide]
total levels of NF-κB (immunofluorescence) (NF-κB [1]; neocortex of non-tg or α-syn-tg mice): not changed
level of phosphorylated-NF-κB (immunofluorescence) (NF-κB [1]; neocortex of α-syn-tg mice): significantly decreased
levels of SDS-insoluble α-synuclein (α-synuclein [2]): significantly decreased
levels of α-synuclein in SDS-soluble fractions (α-synuclein [2]): not affected
immunoreactivity against C-terminus human α-synuclein (α-synuclein [3]; [10]): significantly decreased
level of human α-synuclein immunoreactivity (immunofluorescence) (α-synuclein [3]; [10]): significantly decreased
levels of α-synuclein in neurons and neuropil (immunohistochemical analysis) (α-synuclein [3]; α-syn-tg mice, frontal cortex, hippocampus, striatum): significantly decreased
mRNA level of IL6 (α-syn-tg mice [4]): clearly decreased
mRNA level of IL-1β (α-syn-tg mice [4]): clearly decreased
mRNA level of TNFα (α-syn-tg mice [4]): clearly decreased
levels of astrogliosis (GFAP) (α-syn-tg mice [5]; neocortex of α-syn-tg mice): significantly decreased
numbers of microglial cells (Iba-1-positive) (α-syn-tg mice [5]; neocortex of α-syn-tg mice): significantly decreased
numbers of branches per glial cell (α-syn-tg mice [5]; α-syn-tg mice): decreased
levels of α-synuclein mRNA (α-synuclein mRNA): not affected
beam break numbers (open field test) (α-syn-tg mice [6]): reduced these errors to levels observed in non-tg mice
total round beam errors (α-syn-tg mice [6]): reduced these errors to levels observed in non-tg mice
loss of TH-positive striatal fibers (α-syn-tg mice [7]): significantly decreased
level of IL6 (immunohistochemical analysis) (α-syn-tg mice [8]): significantly reduced
level of IL-1β (immunohistochemical analysis) (α-syn-tg mice [8]): significantly reduced
level of TNFα (immunohistochemical analysis) (α-syn-tg mice [8]): significantly reduced
total levels of NF-κB (western blot) (NF-κB [9]; cortex homogenates of non-tg and α-syn-tg mice): not altered
level of phosphorylated NF-κB (western blot) (NF-κB [9]; cortex homogenates of α-syn-tg mice, nuclear fractions): significantly reduced
